These results are taken from PubChem BioAssay (NCI).

Several values for one entry are separate records, joined by “and”; a condition that tells them apart may be missing. Equal values may be shown once.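 A five-concentration, 48-hour dose response in 96-well plates underlies each endpoint, interpolated linearly between surrounding concentrations. At the GI50, growth is halved. TGI is the concentration that stops growth completely.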

Common to all, as to test: NCI-60 cell line screen, 48 h
Assay [1] concerns A498 renal.
Assay [2] deals with ACHN renal.
Assay [3] relates to HS 578T breast.
The subject of assay [4] is IGROV1 ovarian.
Assay [5] has as its system OVCAR-3 ovarian.
For assay [6], the system named is SNB-19 CNS.
For assay [7], the system named is T-47D breast.
In assay [8] the test system is TK-10 renal.
Assay [9] concerns UACC-257 melanoma.
Assay [10] concerns SK-MEL-2 melanoma.

Take `CC(C)(C)OC(=O)C1C(=O)NC(=O)CC1CC(OCc1ccccc1)C(OCc1ccccc1)C(COCc1ccccc1)OCc1ccccc1` (stereo not given): the TGI in assay [1], in assay [2], in [3], in assay [4], in assay [5] and in [6] was over 100 µM throughout. Also, the figures for the TGI in assay [7], in assay [8] and in assay [9] were 81 µM, over 100 µM and over 100 µM, respectively. Further, the GI50 in assay [2] was 60.2 µM and 18.8 µM; in assay [4], > 100 µM and 22.3 µM; in assay [6], 77.1 µM and 35.6 µM; in [9], 47.8 µM and 15.3 µM.

For `CSc1ccc(C2=NN(C(C)=O)C(c3ccc(-c4cc(Cl)c(Cl)cc4Cl)o3)C2)cc1` (stereo not given), the GI50 was 15.8 µM in assay [2]; 22.8 µM in assay [3]; 9.99 µM in assay [4]; 15.3 µM in assay [5]; 16.8 µM in [10]; 17.9 µM in assay [6]. For the same molecule, the GI50 in assay [7] was 11.9 µM; in assay [8], 24.8 µM; in assay [9], 22.8 µM. For the same molecule, the TGI turned out to be 29.9 µM in assay [2]; 53 µM in assay [3]; 24.9 µM in [4]; 37.8 µM in assay [5]; 35.1 µM in assay [10]; 32.3 µM in assay [6]. In addition, the TGI in [7] stood at 37.2 µM; in assay [8], 50.3 µM; in assay [9] it was 42.7 µM.

Turning to `C=C(C)[C@@H]1CC[C@]2(CO)CC[C@]3(C)[C@H](CC[C@@H]4[C@@]5(C)CCCNC(C)(C)[C@@H]5CC[C@]43C)[C@@H]12`, the GI50 was 2.17 µM in [1]; 1.7 µM in assay [2]; 1.99 µM in [3]; 1.66 µM in assay [4]; 1.66 µM in assay [5]; 1.75 µM in assay [6]. For the same molecule, the GI50 in assay [7] was 1.73 µM; in assay [8] it was 1.76 µM; in assay [9], 1.95 µM. In addition, the TGI in assay [1] stood at 5.63 µM; in assay [2], 3.09 µM; in [3], 4.79 µM; in [4] it was 3.26 µM; in assay [5], 3.13 µM; in [6], 3.2 µM. Also, the TGI in assay [7] came to 3.71 µM; in assay [8], 3.5 µM; in assay [9] it was 3.73 µM.

Consider `COc1ccc(-c2ncnc3c2ncn3CC#CCCl)cc1`, for which the GI50 in assay [1] is 2.15 µM; in assay [2], 3.62 µM; in assay [3], 3.8 µM; in assay [5], 1.93 µM; in assay [6], 4.87 µM; in assay [7] it was 2.89 µM. For the same molecule, the values for the GI50 in [8] and in assay [9] were 7.29 µM and 5.74 µM, respectively. Also, the TGI in assay [1] was 12.5 µM; in [2], 14.8 µM; in assay [3] it was 22.1 µM; in assay [5], 5.75 µM; in assay [6], 18.1 µM; in [7] it was 12.7 µM. Moreover, the TGI was 24 µM in assay [8] and 21.8 µM in assay [9].

For `C[C@@H]1C[C@H](N)C[C@H](c2ccncc2NC(=O)c2ccc(F)c(-c3c(F)cccc3F)n2)C1`, the GI50 in assay [1] is 11.6 µM and 4.53 µM; in [2], 12.1 µM and > 10 µM; in assay [3], 13.4 µM and > 10 µM; in assay [4], 5.05 µM and 8.68 µM; in assay [5], 14.3 µM and > 10 µM; in [10], 17.1 µM and > 10 µM. In addition, the GI50 was 15.6 µM and > 10 µM in assay [6]; 10.5 µM and 8.5 µM in [7]; 13.1 µM and > 10 µM in assay [8]. The TGI in [1] is 24.8 µM and > 10 µM; in assay [2], 24.5 µM and > 10 µM; in assay [3] it was 49 µM and > 10 µM; in [4] it was 21 µM and > 10 µM; in assay [5], 28.2 µM and > 10 µM; in assay [10], 34.8 µM and > 10 µM. Moreover, the TGI in assay [6] was 30.3 µM and > 10 µM; in [7], 28.5 µM and > 10 µM; in assay [8], 26.8 µM and > 10 µM.

Consider `C(=N\Nc1ncc(-c2cc3cc4c(cc3o2)OCO4)s1)/c1ccco1`, for which the GI50 is 1.85 µM in [2]; 2.74 µM in [3]; 2.6 µM in assay [4]; 3.11 µM in [10]; 4.73 µM in assay [6]; 1.27 µM in assay [7]. Also, the GI50 in assay [8] was 3.38 µM; in assay [9] it was 3.83 µM. Moreover, the TGI is 11.3 µM in assay [2]; 22.2 µM in [3]; 8.09 µM in [4]; 11.3 µM in assay [10]; 23.1 µM in assay [6]; 9.74 µM in [7]. Further, the TGI in assay [8] turned out to be 24.7 µM; in assay [9], 23.2 µM.

As to `[N-]=[N+]=NCN1C(=O)C2C3C=CC(C2C1=O)C1C2C(=O)N(CN=[N+]=[N-])C(=O)C2C31` (stereo not given), the TGI in [2], in [3], in [4], in assay [5], in assay [10] and in assay [6] was over 100 µM each time. The TGI in assay [7], in [8] and in [9] was over 100 µM each time.

With `Cc1ccc(OCC2CO2)c(Br)c1` (stereo not given), the TGI was over 100 µM in assay [1]; 21.2 µM in assay [2]; over 100 µM in assay [3]; 37.1 µM in assay [4]; 68 µM in assay [5]; over 100 µM in assay [6]. The TGI in [7], in [8] and in [9] was over 100 µM each time.

As for `COc1cnc2c(c1)C(=O)c1c-2n(CCCN2CCCC2)c(=O)c2cc([N+](=O)[O-])ccc12`, the GI50 in assay [2] was under 0.01 µM; in [3], 1.91 µM; in [4], 0.0187 µM; in assay [5] it was 0.0586 µM; in assay [10] it was 1.01 µM; in assay [6] it was 0.0355 µM. In addition, the values for the GI50 in assay [7], in [8] and in assay [9] were 0.0179 µM, 0.373 µM and 0.176 µM, respectively. Also, the TGI in [2] came to 0.132 µM; in assay [3] it was 23.2 µM; in [4], 1.36 µM; in assay [5] it was 0.901 µM; in assay [10], 15.9 µM; in assay [6] it was 4.3 µM. The TGI in assay [7] stood at 12.8 µM; in [8], 14.1 µM; in assay [9] it was 11 µM.
